# Target: T1, purified STEP46 enzyme (Homo sapiens, UniProt P54829)
# T1 sequence (P54829 1-565): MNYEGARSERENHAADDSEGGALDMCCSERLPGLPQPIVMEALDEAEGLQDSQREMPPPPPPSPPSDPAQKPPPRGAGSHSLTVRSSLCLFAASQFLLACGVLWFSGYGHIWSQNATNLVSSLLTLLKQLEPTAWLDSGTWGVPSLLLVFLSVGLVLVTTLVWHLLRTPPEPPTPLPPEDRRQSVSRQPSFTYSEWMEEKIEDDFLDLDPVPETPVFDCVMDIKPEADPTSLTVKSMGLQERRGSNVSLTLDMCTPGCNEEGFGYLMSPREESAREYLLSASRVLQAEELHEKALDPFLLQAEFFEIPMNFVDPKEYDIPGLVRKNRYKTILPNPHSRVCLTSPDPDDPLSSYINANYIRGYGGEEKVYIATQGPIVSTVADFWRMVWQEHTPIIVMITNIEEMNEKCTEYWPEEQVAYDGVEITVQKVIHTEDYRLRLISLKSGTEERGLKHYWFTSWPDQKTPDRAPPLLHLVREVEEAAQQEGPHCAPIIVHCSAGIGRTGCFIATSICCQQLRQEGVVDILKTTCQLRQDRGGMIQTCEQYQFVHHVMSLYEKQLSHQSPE
# Assay: STEP46 biochemical assay (DiFMUP fluorescence phosphatase assay)
# Details: DiFMUP 10 μM, read-out: STEP IC50
# How it was run: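 Compounds preincubated 30 min at room temperature with purified STEP46 (1 ng/well) in 50 mM Hepes, 1 mM DTT, 0.02% Brij35, then 10 μM DiFMUP (final) added for 90 min at 27 °C; 2% DMSO, fluorescence at 360/460 nm. IC50 from four-parameter fit of % inhibition; activators reported as negative % inhibition at 25, 50 and 100 uM.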
smiles,measurement,value
COc1ccc2nc(-c3cccnc3)nc(Nc3ccc4ncsc4c3)c2c1 [Compound 296],IC50,1 to 10 µM
